15 compounds from patent publication US20040063729A1, “Triazolopyrimidines” (priority 2000, published 2004) can be followed below.

In general, melting point refers to the temperature of the solid-liquid transition.

Tested on in the first data set: not given
Assay: not given
Settings: not given
Take `Clc1ccc(Cc2c(Cl)nc3ncnn3c2Cl)cc1` [I-95, 5,7-dichloro-6-(4-chlorobenzyl)[1,2,4]triazolo[1,5-a]pyrimidine]: the melting point lay in the range of 165 to 167 °C.
On the same count and under the same terms, as for `Clc1c(Cc2ccccc2)cnc2ncnn12` [I-111, 6-benzyl-7-chloro[1,2,4]triazolo[1,5-a]pyrimidine], the figure is 123 to 127 °C.

Another data set has as its system Kidney beans (variety:Serina). In words: Phytotoxicity tested at the same time in the foliar spray test. The format is in vivo. The settings on record: active compound concentration of 500 ppm; foliar spray on kidney beans. The method, then:
Kidney beans (variety:Serina) were cultivated in plastic pots each having a diameter of 6 cm. The previously prepared solution of the prescribed concentration of active compound was sprayed over the plants in the 1 leaf stage at a rate of 20 ml per pot. One day after spraying, a gel obtained by mixing a suspension of spores of artificially cultured Botrytis cinera and PDA medium was added dropwise to the removed first leaf for infection in a plastic box having a size of 20 while maintaining humidity. 5 days after the inoculation, the infection rate per pot was classified and evaluated according to the following standard, and the control value (%) was calculated. Phytotoxicity was tested at the same time. This test is an average of the results of 3 replications. The evaluation of the infection rate and the calculation method of the control value were conducted as follows: […]
`CC(c1ccccc1)c1c(Cl)nc2ncnn2c1Cl` (stereo not shown) [I-112]: the Phytotoxicity entry is “No phytotoxicity”.
Same read-out and setting: as for `Fc1ccc(Cc2c(Cl)nc3ncnn3c2Cl)c(F)c1F` [I-6], the entry is “No phytotoxicity”.
Still for that read-out and setting: under `FC(F)(F)c1cccc(Cc2c(Cl)nc3ncnn3c2Cl)c1` [I-73] stands “No phytotoxicity”; under `Clc1ccc(Cc2c(Cl)nc3ncnn3c2Cl)cc1` [I-95, 5,7-dichloro-6-(4-chlorobenzyl)[1,2,4]triazolo[1,5-a]pyrimidine], “No phytotoxicity”.
The same measure, in the same setting: under `Fc1cc(F)c(Cc2c(Cl)nc3ncnn3c2Cl)cc1F` [I-18] stands “No phytotoxicity”; under `Clc1ccc(Cc2cnc3ncnn3c2Cl)cc1Cl` [I-146], “No phytotoxicity”; under `Clc1cccc(Cc2cnc3ncnn3c2Cl)c1Cl` [I-142], “No phytotoxicity”.
Regarding `Cc1cccc(Cc2c(Cl)nc3ncnn3c2Cl)c1` [I-75], the Phytotoxicity entry was “No phytotoxicity”.
The same measure, in the same setting: as for `Cc1ccc(Cc2c(Cl)nc3ncnn3c2Cl)cc1` [I-94], the entry is “No phytotoxicity”; as for `Clc1cccc(Cc2c(Cl)nc3ncnn3c2Cl)c1` [I-76], “No phytotoxicity”; as for `Clc1nc2ncnn2c(Cl)c1Cc1ccccc1` [I-110], “No phytotoxicity”.
`Fc1cc(F)c(Cc2c(Cl)nc3ncnn3c2Cl)c(F)c1` [I-20]: the Phytotoxicity result is given as “No phytotoxicity”.
Still for that read-out and setting: under `FC(F)(F)Oc1ccc(Cc2c(Cl)nc3ncnn3c2Cl)cc1` [I-104] stands “No phytotoxicity”.
Still for that read-out and setting: as for `Fc1ccc(F)c(Cc2c(Cl)nc3ncnn3c2Cl)c1F` [I-11], the entry is “No phytotoxicity”.
